Measurements published in publication PMC10740956, “A Multitarget Approach against Neuroinflammation: Alkyl Substituted Coumarins as Inhibitors of Enzymes Involved in Neurodegeneration” (Antioxidants, 2023).
Where “and” joins values, the source holds several entries; their conditions need not be identical. Equal values may be shown once. Entries after “also recorded” stand apart in the source; their conditions may differ. Read-outs that look alike come from different tables or passages of the source.

Columns and labels:
[1] = system: Interleukin-6 secretion from rat astrocytes pre-stimulated with LPS; experiment: IL-6 secretion by ELISA in LPS pre-stimulated astrocytes; assay type: cell-based; conditions: 24 h, compared to LPS alone
Experimental: (§1) Cells were seeded (8 × 10^3/well) and were left to adhere for 24 h in 96-well plates (Falcon®, Corning Incorporated, NY, USA). The medium was removed, incubating the cell monolayer in the presence of increasing concentrations of DEP, AAZ, and test compounds (0–150 µM) for 24–72 h. In a second set of experiments, cells were pre-incubated in the presence of 0.1 µg/mL LPS (lipopolysaccharide from E. coli, purchased from Merck, Darmstadt, Germany) for 20 h and further exposed to DEP, AAZ, and test compounds in the same experimental conditions.
The amounts (pg/mL) of interleukin-6 (IL-6) were analyzed in cell supernatants using an ELISA kit (Enzo Life Sciences Inc., Lausen, Switzerland) following the manufacturer’s instructions. Absorbance was read at 450 nm and cytokine concentration was determined. Data obtained were normalized on MTT optical densities.

hMAO-A = molecular target: T1, hMAO-A (Homo sapiens, UniProt P21397); experiment: hMAO-A inhibition, recombinant enzyme, kynuramine substrate, fluorescence; assay type: biochemical; conditions: for IC50: mean ± SD of triplicate determinations
T1 construct: purchased Sigma-Aldrich
T1 sequence (P21397 1-527): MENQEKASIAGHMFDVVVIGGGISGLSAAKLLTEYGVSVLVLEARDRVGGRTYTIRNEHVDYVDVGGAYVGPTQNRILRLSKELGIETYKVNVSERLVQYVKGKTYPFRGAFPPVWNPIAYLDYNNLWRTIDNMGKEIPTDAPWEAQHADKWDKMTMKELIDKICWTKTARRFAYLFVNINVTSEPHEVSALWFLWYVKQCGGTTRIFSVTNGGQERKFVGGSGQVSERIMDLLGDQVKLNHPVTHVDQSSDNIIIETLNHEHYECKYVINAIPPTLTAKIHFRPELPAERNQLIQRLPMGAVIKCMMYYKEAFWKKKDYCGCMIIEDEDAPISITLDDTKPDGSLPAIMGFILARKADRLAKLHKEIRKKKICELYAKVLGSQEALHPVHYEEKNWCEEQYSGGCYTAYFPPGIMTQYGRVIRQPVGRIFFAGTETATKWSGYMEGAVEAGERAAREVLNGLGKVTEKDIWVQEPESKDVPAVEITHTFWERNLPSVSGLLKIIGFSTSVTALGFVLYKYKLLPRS

hCA XII = hCA XII (Homo sapiens, UniProt O43570); experiment: stopped flow CO2 hydrase assay, hCA XII; assay type: biochemical
Chain of hCA XII (O43570 25-354): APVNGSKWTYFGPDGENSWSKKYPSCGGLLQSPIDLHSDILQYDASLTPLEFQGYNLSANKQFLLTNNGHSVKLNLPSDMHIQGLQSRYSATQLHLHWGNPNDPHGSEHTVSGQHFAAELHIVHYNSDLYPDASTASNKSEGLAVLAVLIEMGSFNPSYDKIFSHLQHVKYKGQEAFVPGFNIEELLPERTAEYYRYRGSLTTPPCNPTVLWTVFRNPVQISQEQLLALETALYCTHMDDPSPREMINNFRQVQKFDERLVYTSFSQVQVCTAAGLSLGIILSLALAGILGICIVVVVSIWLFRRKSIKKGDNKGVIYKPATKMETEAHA

CTX/TNA2 rat astrocytes = experiment: Cell metabolic activity assay (MTT), non-inflammatory conditions; assay type: cell-based; conditions: 0-150 µM, 24-72 h
hCA II = hCA II (Homo sapiens, UniProt P00918); experiment: stopped flow CO2 hydrase assay, hCA II; assay type: biochemical; conditions: mean of 3 different assays
hCA IX = hCA IX (Homo sapiens, UniProt Q16790); experiment: stopped flow CO2 hydrase assay, hCA IX; assay type: biochemical; conditions: mean of 3 different assays
hCA I = hCA I (Homo sapiens, UniProt P00915); experiment: stopped flow CO2 hydrase assay, hCA I; assay type: biochemical; conditions: mean of 3 different assays
Chain of hCA I (P00915 whole entry): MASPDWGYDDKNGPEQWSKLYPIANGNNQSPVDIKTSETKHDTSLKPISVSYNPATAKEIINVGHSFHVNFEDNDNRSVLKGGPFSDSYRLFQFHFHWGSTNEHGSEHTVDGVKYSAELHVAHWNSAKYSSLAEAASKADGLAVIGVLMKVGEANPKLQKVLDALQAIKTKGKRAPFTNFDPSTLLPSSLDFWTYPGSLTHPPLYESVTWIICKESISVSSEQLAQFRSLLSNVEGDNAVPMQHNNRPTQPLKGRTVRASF

hCA VII = hCA VII (Homo sapiens, UniProt P43166); experiment: stopped flow CO2 hydrase assay, hCA VII; assay type: biochemical; conditions: mean of 3 different assays
Chain of hCA VII (P43166 whole entry): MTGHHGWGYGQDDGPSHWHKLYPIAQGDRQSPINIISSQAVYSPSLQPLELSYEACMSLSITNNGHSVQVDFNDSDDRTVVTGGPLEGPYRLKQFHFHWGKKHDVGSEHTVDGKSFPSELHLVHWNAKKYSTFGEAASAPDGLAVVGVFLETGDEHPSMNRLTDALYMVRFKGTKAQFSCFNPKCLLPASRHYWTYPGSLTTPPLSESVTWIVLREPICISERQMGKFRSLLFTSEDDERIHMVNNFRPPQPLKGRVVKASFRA

BuChE (equine serum) = molecular target: T2, BuChE (equine serum) (Equus caballus, UniProt P81908); experiment: biochemical; assay type: biochemical; conditions: for IC50: mean ± SD of triplicate determinations
T2 construct: from tissue; host or cells: equine serum
T2 sequence (P81908 whole entry): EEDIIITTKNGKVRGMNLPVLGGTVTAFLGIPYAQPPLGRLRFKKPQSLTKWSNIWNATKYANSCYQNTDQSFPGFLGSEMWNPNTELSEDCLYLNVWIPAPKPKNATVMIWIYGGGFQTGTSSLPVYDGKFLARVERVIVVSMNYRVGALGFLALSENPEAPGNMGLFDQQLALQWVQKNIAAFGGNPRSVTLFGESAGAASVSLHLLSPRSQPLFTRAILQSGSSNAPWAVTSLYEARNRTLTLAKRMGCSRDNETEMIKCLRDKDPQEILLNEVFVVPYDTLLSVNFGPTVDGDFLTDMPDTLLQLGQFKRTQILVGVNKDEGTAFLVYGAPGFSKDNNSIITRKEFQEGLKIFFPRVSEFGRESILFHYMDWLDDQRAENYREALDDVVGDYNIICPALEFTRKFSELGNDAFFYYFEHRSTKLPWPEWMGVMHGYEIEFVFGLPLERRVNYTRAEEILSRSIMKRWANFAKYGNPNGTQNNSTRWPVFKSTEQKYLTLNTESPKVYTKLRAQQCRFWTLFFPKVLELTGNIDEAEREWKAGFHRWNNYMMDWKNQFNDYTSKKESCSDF

AChE (electric eel) = molecular target: T3, AChE (electric eel) (Electrophorus electricus, UniProt O42275); experiment: biochemical; conditions: for IC50: mean ± SD of triplicate determinations; for inhibition at 100 µM: read-out: inhibition of AChE at 100 µM, 100 µM
T3 construct: from tissue
T3 sequence (O42275 24-633): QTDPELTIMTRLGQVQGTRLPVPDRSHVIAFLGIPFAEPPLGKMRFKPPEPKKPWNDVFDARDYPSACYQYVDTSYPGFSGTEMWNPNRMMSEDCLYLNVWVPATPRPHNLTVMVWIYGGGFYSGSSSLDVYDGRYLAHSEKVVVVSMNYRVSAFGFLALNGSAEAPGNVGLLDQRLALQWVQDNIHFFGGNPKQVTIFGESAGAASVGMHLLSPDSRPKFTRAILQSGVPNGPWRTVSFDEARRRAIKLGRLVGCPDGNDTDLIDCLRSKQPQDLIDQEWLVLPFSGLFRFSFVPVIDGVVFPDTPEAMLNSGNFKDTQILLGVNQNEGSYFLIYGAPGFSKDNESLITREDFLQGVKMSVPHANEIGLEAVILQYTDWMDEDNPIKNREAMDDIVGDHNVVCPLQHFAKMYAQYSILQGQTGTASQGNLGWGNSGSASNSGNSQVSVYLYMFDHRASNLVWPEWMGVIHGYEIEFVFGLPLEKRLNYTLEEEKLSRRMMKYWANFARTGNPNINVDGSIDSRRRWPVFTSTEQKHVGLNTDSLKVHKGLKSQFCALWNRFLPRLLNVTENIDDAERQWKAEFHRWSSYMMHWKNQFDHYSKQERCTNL

hMAO-B = molecular target: T4, hMAO-B (Homo sapiens, UniProt P27338); experiment: hMAO-B inhibition, recombinant enzyme, kynuramine substrate, fluorescence; assay type: biochemical; conditions: for SI (selectivity index for hMAO-B over hMAO-A): IC50 hMAO-A/IC50 hMAO-B; for IC50: mean ± SD of triplicate determinations
T4 construct: purchased Sigma-Aldrich
T4 sequence (P27338 1-520): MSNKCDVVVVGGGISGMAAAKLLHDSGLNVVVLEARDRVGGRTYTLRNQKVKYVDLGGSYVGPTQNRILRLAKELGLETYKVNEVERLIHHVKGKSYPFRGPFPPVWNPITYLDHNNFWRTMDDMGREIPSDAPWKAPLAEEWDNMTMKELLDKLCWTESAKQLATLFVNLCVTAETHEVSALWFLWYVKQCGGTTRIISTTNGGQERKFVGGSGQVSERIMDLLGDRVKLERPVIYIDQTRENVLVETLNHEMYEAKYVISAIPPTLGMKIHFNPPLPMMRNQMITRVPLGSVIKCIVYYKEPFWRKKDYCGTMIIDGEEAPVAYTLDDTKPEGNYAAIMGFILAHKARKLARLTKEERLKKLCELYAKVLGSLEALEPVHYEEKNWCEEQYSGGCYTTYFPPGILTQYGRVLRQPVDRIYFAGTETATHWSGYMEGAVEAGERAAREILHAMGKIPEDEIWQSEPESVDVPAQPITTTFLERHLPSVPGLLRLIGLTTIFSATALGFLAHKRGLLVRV

[2] = system: CTX/TNA2 rat astrocytes pre-stimulated with LPS; experiment: Cell metabolic activity assay (MTT), LPS pre-stimulated astrocytes; assay type: cell-based; conditions: pre-stimulated with 0.1 µg/mL LPS 20 h, then compounds 24 and 72 h
[3] = system: H2O2 generation in rat astrocytes pre-stimulated with LPS; experiment: Hydrogen peroxide measurement in supernatants of LPS pre-stimulated astrocytes; assay type: cell-based; conditions: 24 h
Experimental: as §1
At 24 h, cell supernatants were taken from the cultures used for the MTT assay. The quantitative determination of H2O2 released in supernatants was performed by means of a H2O2 colorimetric kit (cat. no. ADI-907-015, Enzo Life Sciences, Inc., Farmingdale, NY, USA). Then, 50 µL of supernatant/well was used and 100 µL of color reagent was added in each well. Next, wells were mixed and afterwards incubated for 30 min at r.t. The OD was measured following the manufacturer’s instructions.

Compound | IL-6 secretion [1] | IC50 (hMAO-A) | Ki (hCA XII; mean of 3 different assays) [nM] | cell metabolic activity (MTT), biocompatibility (CTX/TNA2 rat astrocytes) | Ki (hCA II) [µM] | Ki (hCA IX) [nM] | Ki (hCA I) [µM] | Ki (hCA VII) [nM] | IC50 (BuChE (equine serum)) [µM] | IC50 (AChE (electric eel)) [µM] | SI (selectivity index for hMAO-B over hMAO-A) (hMAO-B) | IC50 (hMAO-B) | cell metabolic activity (MTT) versus LPS only control [2] | also measured
CC(=O)Nc1nnc(S(N)(=O)=O)s1 [AAZ, acetazolamide, reference compound] | the highest concentrations of AAZ are capable of decreasing IL-6 secretion in a significant manner | – | – | – | – | – | – | – | – | – | – | – | – | –
C#CCCCOc1cc(=O)oc2ccccc12 [Compound 1, 4-(Pent-4-yn-1-yloxy)-2H-chromen-2-one] | – | > 10 µM and 51.2 µM | 4.8 | good biocompatibility, with a cell metabolic activity significantly decreased only after 48 h and at the highest concentration tested (150 µM) | > 10 | 17.2 | 6.26 | 59.8 | 33 ± 1 | > 100 | <0.51 | > 100 µM | – | –
C#CCCCCOc1cc(=O)oc2ccccc12 [Compound 2, 4-(Hex-5-yn-1-yloxy)-2H-chromen-2-one] | – | > 10 µM and 10.8 µM | 4.8 | good biocompatibility, with a cell metabolic activity significantly decreased only after 48 h and at the highest concentration tested (150 µM) | > 10 | 9 | > 10 | 46.9 | 21 ± 1 | > 100 | 0.42 | > 10 µM and 25.9 µM | able to counteract the LPS-induced increase in cell metabolic activity | BuChE mode of inhibition (BuChE (equine serum); Cornish-Bowden plots): mixed inhibition mechanism; Kib BuChE (inhibitor binding the ES complex) (BuChE (equine serum); Cornish-Bowden plots): 25 ± 3 µM; Ki (BuChE (equine serum); Cornish-Bowden plots, read-out: Kia BuChE (inhibitor binding the free enzyme) (converted)): 13 µM
C#CCOc1ccc2oc(=O)ccc2c1 [Compound 3, 6-(Prop-2-ynyloxy)-2H-chromen-2-one] | – | > 10 µM and 40.2 µM | – | well tolerated up to 48 h and display a good biocompatibility at the longest exposure time (72 h) | – | – | – | 61.7 | > 100 | > 100 | – | > 10 µM and 65.4 µM | able to counteract the LPS-induced increase in cell metabolic activity | –
CC#CCOc1ccc2oc(=O)ccc2c1 [Compound 4, 6-(But-2-yn-1-yloxy)-2H-chromen-2-one] | – | > 10 µM and 55.7 µM | 4.3 | well tolerated up to 48 h and display a good biocompatibility at the longest exposure time (72 h) | > 10 | 24.2 | > 10 | 63.3 | > 100 | > 100 | 4.6 | > 10 µM and 12.1 µM | – | H2O2 generation ([3]; 10 µM): restoring it to the untreated control levels
C#CCOc1ccc2ccc(=O)oc2c1 [Compound 5, 7-(Prop-2-ynyloxy)-2H-chromen-2-one] | had an effect on IL-6 release | – | 730 | cell metabolic activity significantly decreases at all the concentrations tested at 48 h | > 10 | – | > 10 | 51.9 | > 100 | > 100 | – | 5.79 ± 0.26 µM | – | H2O2 generation ([3]; 0.01 µM): restoring it to the untreated control levels
CC#CCOc1ccc2ccc(=O)oc2c1 [Compound 6, 7-(But-2-yn-1-yloxy)-2H-chromen-2-one] | – | 21.3 ± 0.77 µM | 6.8 | cell metabolic activity significantly decreases at all the concentrations tested at 48 h | > 10 | 9.3 | > 10 | 68.2 | > 100 | > 100 | 85.3 | 0.25 ± 0.017 µM | – | H2O2 generation ([3]; 150 µM): restoring it to the untreated control levels
CCC#CCOc1ccc2ccc(=O)oc2c1 [Compound 7, 7-(Pent-2-yn-1-yloxy)-2H-chromen-2-one] | – | 11.2 ± 0.39 µM | – | – | > 10 | 13 | > 10 | 63.5 | 59 ± 1 | – | – | 0.008 ± 0.00062 µM | – | Ki (hCA XII): 6.8 nM; inhibition at 100 µM (AChE (electric eel)): 50%; H2O2 generation ([3]; 0.01 µM): restoring it to the untreated control levels; also recorded: strong reduction in H2O2 release
C#CCCCOc1ccc2ccc(=O)oc2c1 [Compound 8, 7-(Pent-4-yn-1-yloxy)-2H-chromen-2-one] | – | 5.7 ± 0.21 µM | 6.5 | – | > 10 | 26.6 | > 10 | 69.3 | > 100 | > 100 | – | 0.51 ± 0.0099 µM | able to counteract the LPS-induced increase in cell metabolic activity | –
C#CCCCCOc1ccc2ccc(=O)oc2c1 [Compound 9, 7-(Hex-5-yn-1-yloxy)-2H-chromen-2-one] | decreases the amount of the cytokine at 0.01 and 10 µM | 0.65 ± 0.027 µM | 5.9 | – | > 10 | 31.3 | > 10 | 77.1 | 51 ± 4 | – | 92.8 | 0.007 ± 0.00035 µM | able to counteract the LPS-induced increase in cell metabolic activity | Ki (hMAO-A; Lineweaver-Burk plots): 146 nM; hMAO-A inhibition mechanism (hMAO-A; Lineweaver-Burk plots): competitive inhibition mechanism; inhibition at 100 µM (AChE (electric eel)): 50%; H2O2 generation ([3]; 10 µM): restoring it to the untreated control levels; Ki (hMAO-B; Lineweaver-Burk plots): 2.3 nM; hMAO-B inhibition mechanism (hMAO-B; Lineweaver-Burk plots): competitive inhibition mechanism
C#CCN(C)C(C)Cc1ccccc1 (stereo not shown) [DEP, deprenyl, reference compound] | increases the amount of IL-6 at the highest concentration tested | – | – | – | – | – | – | – | – | – | – | – | – | –
